Results from patent US20170246130A1, “4-HYDROXYBENZOHYDARZIDE-A NEW CLASS OF ANGIOGENIC ENZYME THYMIDINE PHOSPHORYLASE INHIBITORS” (priority 2016, published 2017).
“Also recorded” adds a separate entry of the source.

Tests used:
[1] = target: T1, thymidine phosphorylase (E. coli) (Escherichia coli, UniProt P07650); experiment: In-vitro thymidine phosphorylase inhibition assay (spectrophotometric); assay type: biochemical; conditions: recombinant E. coli TP, thymidine substrate, pH 7.0, 30° C., 290 nm; read-out: IC50 (μM ± S.E.M.), thymidine phosphorylase inhibition
T1 construct: purchased Sigma Aldrich, USA; host or cells: Escherichia coli
T1 sequence (P07650 whole entry): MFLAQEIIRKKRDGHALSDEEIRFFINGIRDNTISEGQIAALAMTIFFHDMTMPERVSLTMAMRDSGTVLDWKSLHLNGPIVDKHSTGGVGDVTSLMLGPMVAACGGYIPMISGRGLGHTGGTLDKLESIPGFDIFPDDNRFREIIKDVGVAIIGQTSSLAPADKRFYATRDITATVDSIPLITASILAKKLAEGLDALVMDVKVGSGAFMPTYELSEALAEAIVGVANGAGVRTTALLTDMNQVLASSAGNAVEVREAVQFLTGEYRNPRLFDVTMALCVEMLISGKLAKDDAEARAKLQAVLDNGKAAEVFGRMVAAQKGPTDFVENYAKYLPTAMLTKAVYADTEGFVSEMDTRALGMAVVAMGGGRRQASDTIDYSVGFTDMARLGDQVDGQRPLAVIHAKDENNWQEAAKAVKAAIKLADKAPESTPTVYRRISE
Method: In vitro studies on thymidine phosphorylase were carried out in 96-well microtiter plate using Spectra Max-340 and Spectra Max-384 spectrophotometers (Molecular Devices, CA, USA). Deionized water used for buffer preparation was collected by Simplicity Water Purification System (Milipore).
Since human TP is not commercially available, we used commercially available recombinant E. coli TP (expressed in Escherichia coli) enzyme. Primary sequence of TP is mostly conserved throughout the evolution as mammalian TP share 39% sequence similarity with TP of E. coli. The mammalian enzyme also shared 65-70% similarity with the active site residues of E. coli TP enzyme (Bronckaers et al., 2009). Assay for thymidine phosphorylase inhibition was performed spectrophotometrically, following method of Bera et al. with some modifications (Bera et al., 2013).
The reaction catalyzed by thymidine phosphorylase involves reversible phosphorolysis of thymidine (FIG. 1), to thymine and 2-deoxyribose-1-phosphate (Bronckaers et al., 2009).
Reaction mixture contained 150 μL of potassium phosphate buffer (pH 7.0, 50 mM), 20 µL of enzyme (0.058 U/well) and 10 μL of test compound (0.5 mM in dimethylsulfoxide). The reaction mixture was incubated for 10 min at 30° C.
The enzyme inhibitory activities were calculated using the following formula:
Percent Inhibition=100−(O.D. of test/O.D. of control)×100
Where test is the enzyme activity with sample, and control is the enzyme activity without sample, and O.D. is optical density.
The IC50 of the compounds was calculated using EZ-Fit Enzyme Kinetic Program (Perrella Scientific Inc., Amhrest, U.S.A.).

[2] = target: T1, thymidine phosphorylase (E. coli); experiment: Kinetic (mechanistic) studies on thymidine phosphorylase; assay type: biochemical; conditions: for Inhibition Type: Lineweaver-Burk plot; for Inhibition Type / Ki: thymidine as variable substrate; for Ki: secondary re-plot, confirmed by Dixon plot, read-out: Ki (μM ± S.E.M.), dissociation constant; for apparent Vmax (Lineweaver-burk plot) / apparent km of the enzyme (Lineweaver-burk plot): absence and different concentrations of compound
Method: These studies disclose the mechanism of inhibitor binding to enzyme. Kinetic studies were carried out using thymidine as variable substrate. […] This was deduced from Lineweaver Burk plot. This compound therefore, interacted either with the amino acids of hydrophobic pocket of the enzyme or at allosteric site of the enzyme. […] Uncompetitive inhibitor causes decrease in both Km and Vmax values of the enzyme (Figure-6). […] Ki values were determined by secondary re-plot, and confirmed by Dixon plot.
Kinetic studies were carried out to find the mechanism of inhibitor action. Inhibitor could bind with enzyme in multiple ways such as in competitive, non-competitive, mixed or uncompetitive way. In kinetic assay, the enzyme (0.058 U/200 μL) was incubated with different concentrations of inhibitor for 10 min at 30° C. The reactions was then initiated by adding different concentrations (0.1875 mM-1.5 mM) of substrate (thymidine) and the resulting degradation of thymidine was measured continuously at 290 nm for 10 min on a ELISA plate reader. Every experiment was run in triplicate.
Line-weaver Burk plot was plotted to determine the type of inhibition. This was accomplished by plotting the reciprocal of the rate of reaction against the reciprocal of the substrate concentration. Ki values were determined by secondary re-plot, and reconfirmed by Dixon plot. The Ki was determined by non-linear regression equation.

[3] = system: mouse fibroblast cell line (3T3); experiment: MTT anti-proliferative assay, 3T3 cells; assay type: cell-based; conditions: for IC50 ± SD (μM), 3T3 Cell Line: 48 h, 3T3 cells; for inhibition of the proliferation of 3T3 cells (in words): in comparison to cyclohexamide
Method: (§1) Compounds found to be active in inhibiting thymidine phosphorylase were then subjected to MTT proliferation assay. Rapid proliferation is the property inherent to cancerous/tumor cells. This assay was carried out to study the effect of these compounds on proliferation of various cell lines. The cell lines which we targeted were mouse fibroblast cell line (3T3), and prostate cancer line (PC3).
(§2) Anti-proliferative activity of active compounds was evaluated by using the standard MTT (3-[4,5-dimethylthiazole-2-yl]-2,5-diphenyl-tetrazolium bromide) colorimetric assay in 96-well plate (Dimas et al., 1998).
(§3) It is a colorimetric assay that measures the reduction of MTT, by mitochondrial enzyme i.e. succinate dehydrogenase. The MTT enters into the mitochondria of cell, where it is reduced to an insoluble formazan salt (FIG. 8). The extent of MTT reduction was measured at 540 nm. As reduction of MTT can only occur in metabolically active cells, the level of activity is actually a measure of the viability of the cells (Vega-Avila and Pugsley, 2011).
(§4) Mouse fibroblast cell line 3T3 was cultured in DMEM, supplemented with 5% of FBS, 100 IU/mL of penicillin and 100 μg/mL of streptomycin, and kept at 37° C. in 5% CO2 incubator. For the preparation of cell culture, 100 μL/well of cell solution (5×10^4 cells/mL) was added into 96-well plate. The plate was incubated for overnight, and fresh medium was added after the removal of old medium. The test compounds were also added in different concentrations into the plate and plate was again incubated for 48 h. After the completion of this incubation period, 200 μL MTT (0.5 mg/mL) was added and plate was again incubated for 4 h, after this final incubation 100 μL of DMSO was added to each well. The level of MTT reduction to formazan was evaluated by change in absorbance at 540 nm using a micro plate reader (Spectra Max plus, Molecular Devices, CA, USA).

[4] = system: prostate cancer line (PC3); experiment: MTT anti-proliferative assay, PC3 cells; assay type: cell-based; conditions: for IC50 ± SD (μM), PC3 Cell Line: PC3 cells
Method: as §1, §2, §3, §4

| SMILES | IC50 [1] | Inhibition Type [2] | Ki [2] | IC50 ± SD (μM), 3T3 Cell Line [3] | IC50 ± SD (μM), PC3 Cell Line [4] | apparent Vmax (Lineweaver-burk plot) [2] | apparent km of the enzyme (Lineweaver-burk plot) [2] | inhibition of the proliferation of 3T3 cells (in words) [3] | IC50 ([4]; Homo sapiens, PC-3, PC3 cells, read-out: IC50 ± SD (μM), PC3 Cell Line) | inhibition of the proliferation of PC3 cancer cells (in words) ([4]; in comparison of doxorubucin) |
| --- | --- | --- | --- | --- | --- | --- | --- | --- | --- | --- |
| O=C(N/N=C/c1ccc(Cl)cc1)c1ccc(O)cc1 [Compound 12, 4-Hydroxy-N′-[(E)-(4-chlorophenyl)methylidene]benzohydrazide] | 159 ± 0.4 µM | un-competitive; also recorded: Uncompetitive | 138 ± 0.009 µM | Inactive | Inactive |  |  |  |  |  |
| O=C(N/N=C/c1cc(Br)cc(Br)c1O)c1ccc(O)cc1 [Compound 24, 4-Hydroxy-N′-[(E)-(3,5-dibromo-2-hydroxyphenyl)methylidene]benzohydrazide] | 6.8 ± 0.7 µM | Non-Competitive | 1.75 ± 0.009 µM |  |  | decreased | remains unaffected | significantly inhibit | 8.34 ± 0.965 µM | significantly inhibit |
| Oc1nc(O)c2cc[nH]c2n1 [7-Deazaxanthine, 2,4-Dihydroxypyrrolo[2,3-d]pyrimidine, reference compound] |  | Non-Competitive |  |  |  |  |  |  |  |  |
| CC/C(=N\NC(=O)c1ccc(O)cc1)c1cc(O)ccc1O [Compound 30, 4-Hydroxy-N′-[(E)-1-(2,5-dihydroxyphenyl)propylidene]benzohydrazide] | 173 ± 1.4 µM | un-competitive; also recorded: Uncompetitive | 159.05 ± 0.002 µM |  | Inactive |  |  | significantly inhibit |  |  |
| O=C(N/N=C/c1ccc(Br)cc1)c1ccc(O)cc1 [Compound 14, 4-Hydroxy-N′-[(E)-(4-bromophenyl)methylidene]benzohydrazide] | 158 ± 1 µM | un-competitive; also recorded: Uncompetitive | 80.5 ± 0.002 µM | Inactive | Inactive |  |  |  |  |  |
| O=C(N/N=C/c1ccc(O)c(O)c1)c1ccc(O)cc1 [Compound 5, 4-Hydroxy-N′-[(E)-(3,4-dihydroxyphenyl)methylidene]benzohydrazide] | 229.5 ± 0.4 µM | un-competitive; also recorded: Uncompetitive | 176.65 ± 0.006 µM |  | Inactive |  |  | significantly inhibit |  |  |
| C/C(=N\NC(=O)c1ccc(O)cc1)c1c(O)cccc1O [Compound 27, 4-Hydroxy-N′-[(E)-1-(2,6-dihydroxyphenyl)ethylidene]benzohydrazide] | 176.9 ± 1.6 µM | un-competitive; also recorded: Uncompetitive | 168 ± 0.003 µM |  | Inactive | decreased | remains unaffected | significantly inhibit |  |  |
